Columns and labels:
[1] = TA4-1A in plasma, brain and tumor of HCT116 tumor-bearing mice; type: in vivo; conditions: for Share of the therapeutic agent in brain / Share of the therapeutic agent in plasma / Share of the therapeutic agent in tumor: mice, 12.5 mg/kg IV daily 14 days, wash-out, last dose day 19
From the text: In vivo experiment protocols were approved by the Animal Use and Care Committee. Female NCr nu/nu mice were purchased from Taconic Farms and group housed in a ventilated rack system on a 12/12 light cycle. All housing materials and water were autoclaved prior to use. The mice were fed ad libitum with gamma-irradiated laboratory chow and acidified water. Animals were handled under laminar-flow hoods. Animals were inoculated subcutaneously in the right flank with 5×10̂6 HCT116 cells. Tumors were monitored twice weekly and then daily as they approached the appropriate size for study. On Day 1 of the study, the animals were randomized into n=3 treatment groups with group average tumor sizes of 109 mm^3.
(§1) where w=width and 1=length in mm of the tumor. Tumor weight was estimated with the assumption that 1 mg is equivalent to 1 mm^3 of tumor volume. Mice were daily dosed with compound TA4-1A at 12.5 mg/kg (IV) during 14 days. A wash-out period ensued for four days with no dosing, and the last dose was administered after the wash-out period (day 19) at 12.5 mg/kg. At one, two and twenty-four hour time points plasma, brain and tumor samples were collected from terminal mice and frozen. It was determined that the tumor contained 35%, plasma contained 64% and brain contained 1% of the therapeutic agent after the one hour time point, and the tumor contained 74%, plasma contained 24% and brain contained 2% of the therapeutic agent after the two hour time point. At the 24 hour time point, tumor contained 17%, plasma contained 49% and brain contained 34% of the therapeutic agent. After an eight hour exposure to the agent in female and male rats, approximately 3-4% of the agent was available in the brain as compared to the amount in plasma. […] Examples of cell lines and particular brain cancers are described herein.

[2] = TA4-1A in brain compared to plasma in rats; type: in vivo; conditions: both sexes, rat, female and male rats, eight hour exposure, read-out: Agent available in the brain as compared to the amount in plasma
Procedure: as §1

In the case of `CC(=O)N1CCN(c2nc3c(cc2F)c(=O)c(C(=O)NCCN2CCCC2)c2n(C)c4ccccc4n32)CC1` [TA4-1A], the Blood-brain barrier permeation ([1]; mice and rats, conclusion from brain levels) is reported as “can permeate the blood-brain barrier to some extent”, the “Share of the therapeutic agent in brain” value ([1]; 24 hour) is reported as 34% and the “Share of the therapeutic agent in plasma” value ([1]; 24 hour) is reported as 49%. For the same compound, the “Share of the therapeutic agent in tumor” value ([1]; 24 hour) was 17%, the “Share of the therapeutic agent in brain” value ([1]; one hour) was 1% and the “Share of the therapeutic agent in plasma” value ([1]; one hour) was 64%. The “Share of the therapeutic agent in tumor” value ([1]; one hour) was 35%, the “Share of the therapeutic agent in brain” value ([1]; two hour) was 2% and the “Share of the therapeutic agent in plasma” value ([1]; two hour) was 24%. For the same compound, the “Share of the therapeutic agent in tumor” value ([1]; two hour) was 74% and the Kp at 8 h [2] was 0.03 to 0.04.
